Values quoted from earlier work as cited in patent US20050119246A1, “1H-pyrazolyl derivative compounds, for use in diseases associated with the 5-ht2c receptor” (Bayer Pharmaceuticals Corporation, priority 2001, published 2005).

How the values were obtained:
5-HT2C receptor = target: T1, 5-HT2C receptor (Homo sapiens, UniProt P28335); settings: background statement; comparator receptors not named
T1 sequence (P28335 33-458): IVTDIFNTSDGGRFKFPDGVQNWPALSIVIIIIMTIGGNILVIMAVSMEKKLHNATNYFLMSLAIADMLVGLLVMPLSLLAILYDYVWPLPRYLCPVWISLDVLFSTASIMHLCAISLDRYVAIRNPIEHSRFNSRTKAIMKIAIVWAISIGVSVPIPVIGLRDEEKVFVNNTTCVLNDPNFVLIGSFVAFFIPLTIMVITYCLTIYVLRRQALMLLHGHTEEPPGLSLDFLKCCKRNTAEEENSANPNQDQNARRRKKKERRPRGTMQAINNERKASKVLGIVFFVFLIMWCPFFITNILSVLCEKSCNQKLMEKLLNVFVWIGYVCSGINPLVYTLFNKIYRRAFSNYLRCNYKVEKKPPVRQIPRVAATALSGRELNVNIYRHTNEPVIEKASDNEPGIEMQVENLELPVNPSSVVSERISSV

5-HT2 receptors = settings: background statement

SMILES	selectivity of 5-HT2C receptor antagonist (5-HT2C receptor)	pKi for the 5-HT2 receptors (5-HT2 receptors)	selectivity for the 5-HT2 receptors over 5-HT1 receptors (5-HT2 receptors)
Cc1cc2c(cc1Cl)N(C(=O)Nc1ccc(Oc3cccnc3C)nc1)CC2 [SB-242084]	at least 100 fold		
Cc1nc2sccn2c(=O)c1CCN1CCC(=C(c2ccc(F)cc2)c2ccc(F)cc2)CC1 [ritanserin]		8.9	10,000 fold
